Source: patent US20250084092A1, “ANNULATED PYRIDAZINE COMPOUND” (Nico Therapeutics, Inc., priority 2021, published 2025)

target: T1, NLRP3 inflammasome (Homo sapiens, UniProt Q96P20); test: THP-1 IL-1β production inhibition test; type: cell-based; details: PMA-treated THP-1 cells, LPS 50 ng/mL + ATP 5 mM, 2 hours, IL-1β in supernatant by ELISA
T1 construct: endogenous in cells; host or cells: THP-1 cells (PMA-differentiated, stimulated with LPS and ATP)
Experimental: PMA (phorbol myristate acetate, SIGMA, P1585) was added to THP-1 cells in an amount of 50 ng/mL to culture the cells for 2 days at 37° C. […] LPS (Lipopolysaccharide, SIMGA, L2880) and ATP (Adenosine triphosphate, SIGMA, A2383) were added so that final concentrations become 50 ng/mL and 5 mM, respectively, followed by culturing at 37° C. for 2 hours. The supernatants were collected to measure the concentrations of IL-1β by ELISA (DuoSet ELISA human IL-1β, R&D Systems, DY201). The IL-1β concentrations were plotted against log concentrations of test compounds, and an IC50 value was calculated by sigmoid Emax model nonlinear regression analysis.

T1 sequence (Q96P20 whole entry): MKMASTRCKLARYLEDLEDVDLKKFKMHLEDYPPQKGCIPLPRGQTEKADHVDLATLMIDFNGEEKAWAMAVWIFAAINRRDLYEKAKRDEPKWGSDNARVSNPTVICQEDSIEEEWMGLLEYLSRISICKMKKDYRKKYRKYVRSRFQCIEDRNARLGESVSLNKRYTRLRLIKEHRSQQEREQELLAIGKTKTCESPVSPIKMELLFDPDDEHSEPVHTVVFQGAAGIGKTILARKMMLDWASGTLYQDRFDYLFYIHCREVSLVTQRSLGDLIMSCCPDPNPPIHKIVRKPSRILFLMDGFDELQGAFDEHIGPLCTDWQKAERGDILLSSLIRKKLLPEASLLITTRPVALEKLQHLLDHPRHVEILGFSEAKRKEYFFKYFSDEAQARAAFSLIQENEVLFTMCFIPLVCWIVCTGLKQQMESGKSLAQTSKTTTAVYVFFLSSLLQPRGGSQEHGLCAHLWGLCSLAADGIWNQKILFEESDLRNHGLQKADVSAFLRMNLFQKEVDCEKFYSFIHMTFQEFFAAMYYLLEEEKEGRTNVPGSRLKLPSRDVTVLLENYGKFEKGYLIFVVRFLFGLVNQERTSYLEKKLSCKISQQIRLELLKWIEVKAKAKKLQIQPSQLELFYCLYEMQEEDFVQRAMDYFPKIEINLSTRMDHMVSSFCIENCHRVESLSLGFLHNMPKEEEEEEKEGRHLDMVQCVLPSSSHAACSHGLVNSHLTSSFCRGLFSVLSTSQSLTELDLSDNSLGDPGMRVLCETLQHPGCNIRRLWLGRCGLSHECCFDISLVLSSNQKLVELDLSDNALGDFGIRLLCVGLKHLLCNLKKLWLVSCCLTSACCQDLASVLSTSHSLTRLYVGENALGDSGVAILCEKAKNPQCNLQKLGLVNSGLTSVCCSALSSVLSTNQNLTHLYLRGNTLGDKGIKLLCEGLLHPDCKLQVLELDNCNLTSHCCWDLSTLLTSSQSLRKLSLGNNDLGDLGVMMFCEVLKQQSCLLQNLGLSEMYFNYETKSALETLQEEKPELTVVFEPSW

Row | SMILES | IC50 [nM]
1 | OCC1(CNc2nnc(-c3ccc(C(F)(F)F)cc3O)c3ccccc23)CC1 [Example 13] | 15
2 | Oc1cc(C(F)(F)F)ccc1-c1nnc(NC[C@H]2CCCO2)c2ccccc12 [Example 14] | 7.6
3 | Oc1cc(C(F)(F)F)ccc1-c1nnc(N[C@@H]2CCCC[C@H]2O)c2ccccc12 [Example 15] | 2.8
4 | C[C@@H](O)CNc1nnc(-c2ccc(C(F)(F)F)cc2O)c2c1CCCC2 [Example 17] | 20
5 | C[C@@H](O)CNc1nnc(-c2ccc(C(F)(F)F)cc2O)c2c1CCC2 [Example 18] | 34
6 | Oc1cc(C(F)(F)F)ccc1-c1nnc(N[C@@H]2CCCC[C@H]2O)c2c1CCC2 [Example 19] | 81
7 | C[C@@H](O)CCc1nnc(-c2ccc(C(F)(F)F)cc2O)c2c1CCCC2 [Example 20] | 22
8 | CC(C)(O)CNc1nnc(-c2ccc(C(F)(F)F)cc2O)c2c1CCC2 [Example 21] | 81
9 | C[C@@H](O)CCc1nnc(-c2ccc(C(F)(F)F)cc2O)c2c1CCC2 [Example 22] | 69
10 | CC(=O)N[C@@H]1CCCC[C@H]1Nc1nnc(-c2ccc(C(F)(F)F)cc2O)c2ccccc12 [Example 23] | 17
11 | C[C@@H](O)CNc1nnc(-c2ccc(C(F)(F)F)cc2O)c2c1[C@H]1CC[C@@H]2CC1 [Example 24] | 74
12 | Oc1cc(Cl)ccc1-c1nnc(N[C@@H]2CCCC[C@H]2O)c2c1CCCC2 [Example 25] | 4.6
13 | Cc1ccc(-c2nnc(N[C@@H]3CCCC[C@H]3O)c3c2CCCC3)c(O)c1 [Example 26] | 15
14 | Oc1cc(OC(F)(F)F)ccc1-c1nnc(N[C@@H]2CCCC[C@H]2O)c2c1CCCC2 [Example 27] | 4.1
15 | COc1ccc(-c2nnc(N[C@@H]3CCCC[C@H]3O)c3c2CCCC3)c(O)c1 [Example 28] | 14
16 | C[C@]1(O)C[C@@H](Nc2nnc(-c3ccc(C(F)(F)F)cc3O)c3c2CCCC3)C1 [Example 29] | 18
17 | C[C@]1(O)C[C@@H](Nc2nnc(-c3ccc(Cl)cc3O)c3c2CCCC3)C1 [Example 30] | 22
18 | Cc1ccc(-c2nnc(N[C@H]3C[C@@](C)(O)C3)c3c2CCCC3)c(O)c1 [Example 31] | 44
19 | C[C@]1(O)C[C@@H](Nc2nnc(-c3ccc(OC(F)(F)F)cc3O)c3c2CCCC3)C1 [Example 32] | 76

Row | SMILES | IC50 [nM]
20 | COc1ccc(-c2nnc(N[C@H]3C[C@@](C)(O)C3)c3c2CCCC3)c(O)c1 [Example 33] | 100
21 | Oc1cc(C(F)(F)F)ccc1-c1nnc(N[C@@H]2CCCC[C@H]2O)c2c1CCCCC2 [Example 34] | 3.9
22 | Oc1cc(C(F)(F)F)ccc1-c1nnc(N[C@@H]2CCOC[C@H]2O)c2c1CCCC2 [Example 35] | 16
23 | Cc1ccc(-c2nnc(N[C@@H]3CCOC[C@H]3O)c3c2CCCC3)c(O)c1 [Example 36] | 32
24 | Oc1cc(OC(F)(F)F)ccc1-c1nnc(N[C@@H]2CCOC[C@H]2O)c2c1CCCC2 [Example 37] | 18
25 | COc1ccc(-c2nnc(N[C@@H]3CCOC[C@H]3O)c3c2CCCC3)c(O)c1 [Example 38] | 54
26 | Oc1cc(Cl)ccc1-c1nnc(N[C@@H]2CCOC[C@H]2O)c2c1CCCC2 [Example 39] | 19
27 | OCC12CC(Nc3nnc(-c4ccc(C(F)(F)F)cc4O)c4c3CCCC4)(C1)C2 [Example 40] | 50
28 | Oc1cc(C(F)(F)F)ccc1-c1nnc(N[C@@H]2CCCC[C@H]2O)c2c1CCCO2 [Example 41] | 40
29 | Oc1cc(C(F)(F)F)ccc1-c1nnc(N[C@@H]2CCCC[C@H]2O)c2c1OCCC2 [Example 42] | 37
30 | Oc1cc(OC(F)(F)F)ccc1-c1nnc(N[C@@H]2CCCC[C@H]2O)c2c1CCCCC2 [Example 43] | 8.7
31 | Oc1cc(C(F)(F)F)ccc1-c1nnc(N[C@@H]2CCOC[C@H]2O)c2c1CCCCC2 [Example 44] | 6.8
32 | Oc1cc(OC(F)(F)F)ccc1-c1nnc(N[C@@H]2CCOC[C@H]2O)c2c1CCCCC2 [Example 45] | 14
33 | Cc1ccc(-c2nnc(N[C@@H]3CCOC[C@H]3O)c3c2CCCCC3)c(O)c1 [Example 46] | 11
34 | COc1ccc(-c2nnc(N[C@@H]3CCCC[C@H]3O)c3c2CCCCC3)c(O)c1 [Example 47] | 16
35 | C[C@]1(O)C[C@@H](Nc2nnc(-c3ccc(C(F)(F)F)cc3O)c3c2CCCCC3)C1 [Example 48] | 36
36 | COc1ccc(-c2nnc(N[C@@H]3CCOC[C@H]3O)c3c2CCCCC3)c(O)c1 [Example 49] | 22
37 | O=C1NCC[C@@H]1Nc1nnc(-c2ccc(C(F)(F)F)cc2O)c2c1CCCC2 [Example 50] | 8.2
38 | Oc1cc(C2CC2)ccc1-c1nnc(N[C@@H]2CCCC[C@H]2O)c2c1CCCC2 [Example 51] | 13

Row | SMILES | IC50 [nM]
39 | C[C@@]1(O)CCCC[C@H]1Nc1nnc(-c2ccc(C(F)(F)F)cc2O)c2c1CCCC2 [Example 53] | 15
40 | C[C@@]1(O)CCCC[C@H]1Nc1nnc(-c2ccc(OC(F)(F)F)cc2O)c2c1CCCC2 [Example 54] | 21
41 | Cc1ccc(-c2nnc(N[C@@H]3CCCC[C@@]3(C)O)c3c2CCCC3)c(O)c1 [Example 55] | 36
42 | COc1ccc(-c2nnc(N[C@@H]3CCCC[C@@]3(C)O)c3c2CCCC3)c(O)c1 [Example 58] | 88
43 | C[C@]1(O)C[C@@H](Nc2nnc(-c3ccc(C(F)(F)F)cc3O)c3c2CCC3)C1 [Example 59] | 40
44 | Oc1ccccc1-c1nnc(N[C@@H]2CCCC[C@H]2O)c2c1CCOC2 [Example 61] | 96
45 | CC(=O)N1CCC[C@@H](Nc2nnc(-c3ccc(C(F)(F)F)cc3O)c3ccccc23)C1 [Example 63] | 9.4
46 | CC(=O)N1CCC[C@@H](Oc2nnc(-c3ccc(C(F)(F)F)cc3O)c3ccccc23)C1 [Example 65] | 48
47 | CN1CCC[C@@H](Oc2nnc(-c3ccc(C(F)(F)F)cc3O)c3ccccc23)C1 [Example 67] | 13
48 | Oc1cc(OC(F)(F)F)ccc1-c1nnc(N[C@@H]2CCCC[C@H]2O)c2c1CCOCC2 [Example 68] | 11
49 | COc1ccc(-c2nnc(N[C@@H]3CCCC[C@H]3O)c3c2CCOC3)c(O)c1 [Example 69] | 6.6
50 | Oc1cc(C(F)(F)F)ccc1-c1nnc(N[C@@H]2CCCN(C3CCC3)C2)c2c1CCCC2 [Example 71] | 150
51 | C[C@@H](O)CNc1nnc(-c2ccc(C(F)(F)F)cc2C(F)(F)F)c2c1CN(C)CC2 [Example 74] | 1400
52 | CN1CCc2c(N[C@@H]3CCCC[C@H]3O)nnc(-c3ccc(C(F)(F)F)cc3O)c2C1 [Example 75] | 54
53 | CN1CCc2c(-c3ccc(OC(F)(F)F)cc3O)nnc(N[C@@H]3CCCC[C@H]3O)c2C1 [Example 76] | 23
54 | Cc1ccc(-c2nnc(N[C@@H]3CCCC[C@H]3O)c3c2CCN(C)C3)c(O)c1 [Example 77] | 33
55 | CCN1CCc2c(-c3ccc(C(F)(F)F)cc3O)nnc(N[C@@H]3CCCC[C@H]3O)c2C1 [Example 78] | 54
56 | CC(=O)N1CCc2c(-c3ccc(C(F)(F)F)cc3C(F)(F)F)nnc(NC[C@@H](C)O)c2C1 [Example 79, 1-{1-[2,4-bis(trifluoromethyl)phenyl]-4-{[(2R)-2-hydroxypropyl]amino}-7,8-dihydropyrido[3,4-d]pyridazin-6(5H)-yl}ethan-1-one] | 4800
